Assay results reported in paper PMC11396751, “Design, Synthesis, and Anticancer Activity of Novel Enmein-Type Diterpenoid Derivatives Targeting the PI3K/Akt/mTOR Signaling Pathway” (Molecules, 2024).

Legend:
A549 cells = assay: MTT anti-proliferative assay, A549; assay type: cell-based, human; conditions: for IC50: Homo sapiens, A549, MTT, 48 h, means ± SD of three experiments
Procedure: (§1) A series of novel enmein-type diterpenoid derivatives, 5a–m, were synthesized by introducing a side chain containing a carbamate moiety at the C-6 position of compound 4. The anticancer activities of 5a–m were tested against three human cancer cell lines and one human normal cell line by MTT assay.
(§2) Human non-small cell lung cancer cell lines (A549), human liver cancer cell lines (HepG2), human breast cancer cell lines (MCF-7), and human normal cell lines (L-02) were purchased from the cell bank of the Chinese Academy of Sciences. All cells were placed in RPMI-1640 medium (added 10% fetal bovine serum, […]) and cultured in an aseptic environment with 5% CO2 at 37 °C.
(§3) All derivatives were evaluated for their anti-proliferative activities against three cancer cell lines and one normal cell line by MTT assay. The cells in the logarithmic growth phase were inoculated into 96-well plates (3 × 10^3 cells/well) and incubated for 48 h in a sterile environment with 5% CO2 at 37 °C to make them attach via cell adhesion; then, the cells were co-incubated with target compounds for 48 h. After that, MTT solution (10 µL/well) was added to the cell culture medium to continue incubation for 4 h, following which the medium was replaced with DMSO (150 µL/well). The absorbance values at 490 nm were determined using an enzyme meter (Safire 2, Tecan, Männedorf, Switzerland) and further converted to half-inhibitory concentration values of these compounds.

L-02 cells = assay: MTT anti-proliferative assay, normal L-02 cells; assay type: cell-based; conditions: means ± SD of three experiments
Procedure: as §1, §2, §3

MCF-7 cells = assay: MTT anti-proliferative assay, MCF-7; assay type: cell-based; conditions: Homo sapiens, MCF7, 48 h, means ± SD of three experiments
Procedure: as §1, §2, §3

HepG2 cells = assay: MTT anti-proliferative assay, HepG2; assay type: cell-based, human; conditions: for IC50: Homo sapiens, HepG2, MTT, 48 h, means ± SD of three experiments
Procedure: as §1, §2, §3

SMILES	IC50 (A549 cells)	IC50 (L-02 cells; Homo sapiens, L02, 48 h)	IC50 (MCF-7 cells)	IC50 (HepG2 cells)	IC50 (L-02 cells; L02, human normal cells, 48 h)	fold better than parental compound 4 (A549 IC50) (A549 cells; A549 cells)	anticancer activity in words, HepG2 (HepG2 cells; HepG2 cells)
C=C1C(=O)C23C(=O)OC45CCC(C)(C)C6C(O)OCC64C2CCC1C3O5 (single isomer, unassigned; ent-6) [Compound 4, Ent-6β,14α-Dihydroxy-(1,7–1,14)-epoxy-7,15-dioxo-6,20-hemiketal-6,7-seco-16-kaurene]	23.8 ± 1.86 µM	30.2 ± 1.58 µM	25.8 ± 1.14 µM	27.4 ± 0.83 µM	–	–	–
C=C1C(=O)C23C(=O)OC45CCC(C)(C)C6C(OC(=O)N(C)C)OCC64C2CCC1C3O5 (single isomer, unassigned; ent-6) [Compound 5a, ent-6β,14α-Dihydroxy-(1,7–1,14)-epoxy-7,15-dioxo-6,20-hemiketal-6,7-seco-16-kaurene-6β-yl dimethylcarbamate]	14.7 ± 1.54 µM	> 50 µM	30.7 ± 1.16 µM	17.1 ± 1.39 µM	–	–	–
C=C1C(=O)C23C(=O)OC45CCC(C)(C)C6C(OC(=O)N(CC)CC)OCC64C2CCC1C3O5 (single isomer, unassigned; ent-6) [Compound 5b, ent-6β,14α-Dihydroxy-(1,7–1,14)-epoxy-7,15-dioxo-6,20-hemiketal-6,7-seco-16-kaurene-6β-yl diethylcarbamate]	15.8 ± 1.5 µM	> 50 µM	17.6 ± 2.4 µM	15.2 ± 1.58 µM	–	–	–
C=C1C(=O)C23C(=O)OC45CCC(C)(C)C6C(OC(=O)N(C)CC)OCC64C2CCC1C3O5 (single isomer, unassigned; ent-6) [Compound 5c, ent-6β,14α-Dihydroxy-(1,7–1,14)-epoxy-7,15-dioxo-6,20-hemiketal-6,7-seco-16-kaurene-6β-yl ethyl(methyl)carbamate]	20.2 ± 1.46 µM	> 50 µM	21.9 ± 2.72 µM	22.5 ± 3.42 µM	–	–	–
C=C1C(=O)C23C(=O)OC45CCC(C)(C)C6C(OC(=O)N(CCCl)CCCl)OCC64C2CCC1C3O5 (single isomer, unassigned; ent-6) [Compound 5d, ent-6β,14α-Dihydroxy-(1,7–1,14)-epoxy-7,15-dioxo-6,20-hemiketal-6,7-seco-16-kaurene-6β-yl bis(2-chloroethyl) carbamate]	8.76 ± 1.56 µM	–	15.6 ± 1.61 µM	11 ± 1.45 µM	30.4 ± 3.44 µM	–	–
C=C1C(=O)C23C(=O)OC45CCC(C)(C)C6C(OC(=O)N7CCCC7)OCC64C2CCC1C3O5 (single isomer, unassigned; ent-6) [Compound 5f, ent-6β,14α-Dihydroxy-(1,7–1,14)-epoxy-7,15-dioxo-6,20-hemiketal-6,7-seco-16-kaurene-6β-yl pyrrolidine-1-carboxylate]	13.4 ± 2.19 µM	45.9 ± 2.3 µM	20.7 ± 1.2 µM	18.3 ± 1.36 µM	–	–	–
C=C1C(=O)C23C(=O)OC45CCC(C)(C)C6C(OC(=O)N7CCCCC7)OCC64C2CCC1C3O5 (single isomer, unassigned; ent-6) [Compound 5g, ent-6β,14α-Dihydroxy-(1,7–1,14)-epoxy-7,15-dioxo-6,20-hemiketal-6,7-seco-16-kaurene-6β-yl piperidine-1-carboxylate]	15.3 ± 2.4 µM	> 50 µM	22.8 ± 2.13 µM	21.1 ± 2.5 µM	–	–	–
C=C1C(=O)C23C(=O)OC45CCC(C)(C)C6C(OC(=O)N7CCCCCC7)OCC64C2CCC1C3O5 (single isomer, unassigned; ent-6) [Compound 5h, ent-6β,14α-Dihydroxy-(1,7–1,14)-epoxy-7,15-dioxo-6,20-hemiketal-6,7-seco-16-kaurene-6β-yl azepane-1-carboxylate]	18.4 ± 1.13 µM	> 50 µM	24 ± 2.55 µM	20.2 ± 1.33 µM	–	–	–
C=C1C(=O)C23C(=O)OC45CCC(C)(C)C6C(OC(=O)N7CCOCC7)OCC64C2CCC1C3O5 (single isomer, unassigned; ent-6) [Compound 5i, ent-6β,14α-Dihydroxy-(1,7–1,14)-epoxy-7,15-dioxo-6,20-hemiketal-6,7-seco-16-kaurene-6β-yl bmorpholine-4-carboxylate]	14.4 ± 1.42 µM	38.1 ± 2.82 µM	25.1 ± 3.34 µM	23.7 ± 3.4 µM	–	–	–
C=C1C(=O)C23C(=O)OC45CCC(C)(C)C6C(OC(=O)N(c7ccccc7)c7ccccc7)OCC64C2CCC1C3O5 (single isomer, unassigned; ent-6) [Compound 5j, ent-6β,14α-Dihydroxy-(1,7–1,14)-epoxy-7,15-dioxo-6,20-hemiketal-6,7-seco-16-kaurene-6β-yl diphenylcarbamate]	23.3 ± 2.25 µM	> 50 µM	32.8 ± 2.95 µM	34.1 ± 3.52 µM	–	–	–
C=C1C(=O)C23C(=O)OC45CCC(C)(C)C6C(OC(=O)N7c8ccccc8Sc8ccccc87)OCC64C2CCC1C3O5 (single isomer, unassigned; ent-6) [Compound 5k, ent-6β,14α-Dihydroxy-(1,7–1,14)-epoxy-7,15-dioxo-6,20-hemiketal-6,7-seco-16-kaurene-6β-yl 10H-phenothiazine-10-carboxylate]	17.2 ± 1.43 µM	> 50 µM	26.3 ± 2.3 µM	25.7 ± 2.16 µM	–	–	–
C=C1C(=O)C23C(=O)OC45CCC(C)(C)C6C(OC(=O)CCn7cccc7)OCC64C2CCC1C3O5 (single isomer, unassigned; ent-6) [Compound 5l, ent-6β,14α-Dihydroxy-(1,7–1,14)-epoxy-7,15-dioxo-6,20-hemiketal-6,7-seco-16-kaurene-6β-yl 3-(1H-pyrrol-1-yl) propanoate]	8.3 ± 2.55 µM	> 50 µM	15.9 ± 1.9 µM	11.2 ± 1.82 µM	–	–	–
C=C1C(=O)C23C(=O)OC45CCC(C)(C)C6C(OC(=O)CCN7C(=O)c8ccccc8C7=O)OCC64C2CCC1C3O5 (single isomer, unassigned; ent-6) [Compound 5m, ent-6β,14α-Dihydroxy-(1,7–1,14)-epoxy-7,15-dioxo-6,20-hemiketal-6,7-seco-16-kaurene-6β-yl 3-(1,3-dioxoisoindolin-2-yl) propanoate]	6.85 ± 1.68 µM	32.5 ± 1.62 µM	12.3 ± 1.11 µM	10.9 ± 1.25 µM	–	3.48 fold	–
C=C1C(=O)C23C(=O)OC45CCC(C)(C)C6C(OC(=O)CCC(=O)NCc7ccccc7)OCC64C2CCC1C3O5 (single isomer, unassigned; ent-6) [Compound 7a, ent-6β,14α-Dihydroxy-(1,7–1,14)-epoxy-7,15-dioxo-6,20-hemiketal-6,7-seco-16-kaurene-6β-yl 4-(benzylamino)-4-oxobutanoate]	10.2 ± 1.1 µM	–	10.8 ± 1.65 µM	13.8 ± 2.19 µM	> 50 µM	–	–
C=C1C(=O)C23C(=O)OC45CCC(C)(C)C6C(OC(=O)CCC(=O)NCc7ccc(C)cc7)OCC64C2CCC1C3O5 (single isomer, unassigned; ent-6) [Compound 7b, ent-6β,14α-Dihydroxy-(1,7–1,14)-epoxy-7,15-dioxo-6,20-hemiketal-6,7-seco-16-kaurene-6β-yl 4-((4-methylbenzyl)amino)-4-oxobutanoate]	7.48 ± 1.31 µM	> 50 µM	12.8 ± 1.64 µM	10.5 ± 1.68 µM	–	–	–
C=C1C(=O)C23C(=O)OC45CCC(C)(C)C6C(OC(=O)CCC(=O)NCc7ccc(OC)cc7)OCC64C2CCC1C3O5 (single isomer, unassigned; ent-6) [Compound 7c, ent-6β,14α-Dihydroxy-(1,7–1,14)-epoxy-7,15-dioxo-6,20-hemiketal-6,7-seco-16-kaurene-6β-yl 4-((4-meth0xybenzyl)amino)-4-oxobutanoate]	8.37 ± 1.53 µM	34.4 ± 4.37 µM	8.35 ± 1.96 µM	12.8 ± 1.73 µM	–	–	–
C=C1C(=O)C23C(=O)OC45CCC(C)(C)C6C(OC(=O)CCC(=O)NCc7ccc(C(C)(C)C)cc7)OCC64C2CCC1C3O5 (single isomer, unassigned; ent-6) [Compound 7d, ent-6β,14α-Dihydroxy-(1,7–1,14)-epoxy-7,15-dioxo-6,20-hemiketal-6,7-seco-16-kaurene-6β-yl 4-((4-(tert-butyl)benz-yl)amino)-4-oxobutanoate]	6.41 ± 1.9 µM	35.7 ± 2.66 µM	7.64 ± 2.52 µM	11.5 ± 1.58 µM	–	–	–
C=C1C(=O)C23C(=O)OC45CCC(C)(C)C6C(OC(=O)CCC(=O)NCc7ccc(F)cc7)OCC64C2CCC1C3O5 (single isomer, unassigned; ent-6) [Compound 7e, ent-6β,14α-Dihydroxy-(1,7–1,14)-epoxy-7,15-dioxo-6,20-hemiketal-6,7-seco-16-kaurene-6β-yl 4-((4-fluorobenzyl)amino)-4-oxobutanoate]	7.12 ± 1.52 µM	> 50 µM	9.85 ± 1.53 µM	11.6 ± 1.34 µM	–	–	–
C=C1C(=O)C23C(=O)OC45CCC(C)(C)C6C(OC(=O)CCC(=O)NCc7ccc(Cl)cc7)OCC64C2CCC1C3O5 (single isomer, unassigned; ent-6) [Compound 7f, ent-6β,14α-Dihydroxy-(1,7–1,14)-epoxy-7,15-dioxo-6,20-hemiketal-6,7-seco-16-kaurene-6β-yl 4-((4-chlorobenzyl)amino)-4-oxobutanoate]	7.38 ± 0.96 µM	> 50 µM	8.2 ± 1.21 µM	8.61 ± 1.14 µM	–	–	low micro-molar-level anticancer activities
